# Measurements from patent publication US10987350B2, “Method for treating post-traumatic stress disorder” (priority 2017, dated 2021).
# Experiments:
# [1] = tested on: patient diagnosed with post-traumatic stress disorder (PTSD); experiment: higher dose titration schedule of nalmefene in patients diagnosed with PTSD; type: in vivo, human
# Description: One object of the subject invention is to provide improved benefit to patients diagnosed with PTSD, by employing a higher dose titration schedule for the administration of nalmefene. In accordance with the nalmefene dosing titration schedule of the subject invention, nalmefene is administered at a higher initial dose than the dosing schedule published in the pilot study, and administering nalmefene at the same, higher dose increments at regular intervals described above. Specifically, the subject invention comprises administering nalmefene orally to a PTSD patient at an initial dose of 100 milligrams per day, preferably using 50 milligram doses, twice a day, with increases every 3-4 days of 100 mg per day (50 milligrams twice a day), not to exceed 1000 mg per day (500 mg twice a day).
# The subject invention comprises administering, on a dosing titration schedule, nalmefene, to a patient diagnosed with post-traumatic stress disorder (PTSD), using • a starting dose of 100 mg per day, preferably in divided doses of 50 mg twice per day; and • increasing the dose by 100-150 mg per day, every 2-5 days, up to a maximum daily dose of 1000 mg, per day.
# Each increase is preferably 100 mg per day, at a divided dose of 50 mg twice per day.
# An optimum dose of nalmefene, wherein PTSD symptoms are reduced or reversed, can be achieved within 2-3 weeks for individuals diagnosed with PTSD. The reduced or reversed. PTSD symptoms are based on both clinical observation of the patient and on reporting of reduced or reversed symptoms by the patient.
# [2] = tested on: combat veterans diagnosed with post-traumatic stress disorder (PTSD); details: 18 combat veterans with PTSD; 1 mg twice a day up to 200 mg twice a day; cited from earlier work
# [3] = compared with naltrexone; cited from earlier work
# liver = details: compared with naltrexone; cited from earlier work
# [4] = tested on: respiratory depression produced by opiate overdose; details: cited from earlier work
# [5] = dosing administration schedule of the invention
structure (smiles),measurement,setting,value
C=C1CC[C@@]2(O)[C@H]3Cc4ccc(O)c5c4[C@@]2(CCN3CC2CC2)[C@H]1O5 [nalmefene],adverse reaction with large dose increments,[1]; dose increments significantly greater than 50 milligrams twice a day,frequent and intense mood swings
same,"occurrence of fluctuating mood states (anxiety, hostility and rage, depression, paranoia) with dose increases",[1]; [5],successful in avoiding the occurrence of fluctuating mood states
same,time to stabilization of mental state of the PTSD patient,[1]; [5],stabilized in a much briefer period of time
same,emergence of opiate withdrawal symptoms,[1]; higher dose of at least 50 mgs twice a day,unexpectedly bypassed the emergence of opiate withdrawal symptoms
same,"time to achieve optimum dose, wherein PTSD symptoms are reduced or reversed","[1]; higher dose titration schedule, clinical observation and patient reporting",2-3 weeks
same,"core symptoms of PTSD (nightmares, intrusive thoughts, flashbacks, avoidance, dissociative amnesia, mistrust, hyper arousal)",[2],significantly improve all core symptoms of PTSD
same,symptom of emotional numbness,[2],"significantly reduce, and in some cases remit"
same,half-life relative to naltrexone,[3],longer half-life
same,dose-dependent liver toxicity,liver,no observed dose-dependent liver toxicity
same,additional benefit in opiate overdose at higher doses,[4]; intravenous doses greater than 1.5 mg,do not appear to give any greater benefit
same,counteracting respiratory depression produced by opiate overdose,[4]; intravenous doses,effective
